ChEMBL document CHEMBL3507680, “University of Dundee, Gates Library screen for HepG2 cell viability”

Assay: Human HepG2 cell viability assay in 384 well format
Type: toxicity, cell-based
Design: dose 125 nL, time 70.5 hour; concentration not given beside the values
Conditions: HepG2 cells, read-out: Inhibition

Compared with `O=C(Cc1ccccn1)N1C[C@@H](Oc2cccnc2)[C@H]2OCCC[C@H]21`, `O=C(NCC1CCCO1)c1cc(-c2cccnc2)c2cnccc2n1` (configuration not stated) is lower in cytotoxicity at 70.5 h: 28.2% for the first, -3.09% for the second.

Compared with `Cn1nccc1-c1ccc2nc(C3CCNCC3)nn2c1`, `Cc1cc(-c2nccs2)nc(C2CCN(Cc3ccc(F)cc3)CC2)n1` is lower in cytotoxicity at 70.5 h: 10.5% for the first, -2% for the second.

First: O=C(Nc1cccc(Cl)c1)c1nn(C2CCS(=O)(=O)C2)c2c1CCCC2 (configuration not stated)
Second: CN(C(=O)Cn1nc(-c2ccc(F)cc2)ccc1=O)C1CCS(=O)(=O)C1 (configuration not stated)
The cytotoxicity at 70.5 h of the first is higher: 13.9% for the first, -0.171% for the second.

Compared with `COc1cccc(C2CC(=O)Nc3nc(N)sc32)c1OC` (configuration not stated), `Cn1ncc2c1NC(=O)CC2c1ccccc1Cl` (configuration not stated) is lower in cytotoxicity at 70.5 h: 12.4% for the first, -5.68% for the second.

Compared with `O=C(c1cc(-n2cccc2)ccc1Cl)N1CCC2(CC1)OCCO2`, `CCN(CC)C1CCN(C(=O)c2cc(-n3cccn3)ccc2Cl)CC1` is lower in cytotoxicity at 70.5 h: 2.22% for the first, -0.746% for the second.

Compared with `CCOC(=O)N1CCN(C(=O)CCn2ccc3c(OC)cccc32)CC1`, `CCCC(=O)N1CCC2(CC1)CC(NC(C)=O)c1ccccc1O2` (configuration not stated) is lower in cytotoxicity at 70.5 h: -9.78% for the first, -13.7% for the second.

Going from `CN1CCN(c2nc(O)c3c(-c4ccccn4)ccnc3n2)CC1` to `CNC(=O)C1CN(c2ncccn2)CCN1Cc1ccccc1` (configuration not stated), the cytotoxicity at 70.5 h falls from -3.01% to -3.64%.

First: O=C(COc1coc(CN2CCOCC2)cc1=O)c1ccc(Cl)cc1
Second: O=C(O)[C@H]1OCC(=O)N(Cc2cccc(F)c2)[C@@H]1c1ccc(Cl)cc1
The cytotoxicity at 70.5 h of the first is higher: -9.03% for the first, -9.16% for the second.

Compared with `CC(C)CN1C[C@@H]2CN(C(=O)[C@H]3CCCO3)C[C@@H]2C1=O`, `COCCC(=O)N1C[C@H]2CN(Cc3cccc(C)n3)C(=O)[C@H]2C1` is higher in cytotoxicity at 70.5 h: -14.1% for the first, -11.1% for the second.

Compared with `COCCN1C(=O)CCC12CCN(C(=O)NC(C)C)CC2`, `CN(C)C(=O)CN1C(=O)CCC12CCN(Cc1cccn1C)CC2` is higher in cytotoxicity at 70.5 h: -25.3% for the first, 0.746% for the second.

Compared with `Cc1ccc(C(=O)N2CCCC3(CCCC(=O)N3C)C2)cc1F` (configuration not stated), `O=C(c1ccc(F)cc1)N1CCC2(CCCN2CC2CC2)CC1` is lower in cytotoxicity at 70.5 h: -4.57% for the first, -14% for the second.

Compared with `CC(=O)N1CCN(c2ccc3ccc(C(=O)NC4CCCC4)cn23)CC1`, `O=C(CC1CCCC1)N1C[C@@H]2CCN(c3cccnc3)C[C@@H]2C1` is higher in cytotoxicity at 70.5 h: -14.6% for the first, -7.38% for the second.

Compared with `O=C(c1ccco1)N1CCC2(CCC(=O)N2Cc2cccc(F)c2)CC1`, `O=C1COC2(CCN(C(=O)c3ccco3)CC2)CN1Cc1cccnc1` is higher in cytotoxicity at 70.5 h: -15.7% for the first, -8.01% for the second.

Going from `COCCN1CC[C@]2(CN(C(=O)c3cccs3)C[C@H]2C)C1=O` to `CC(C)C(=O)N1CCC2(CCCN(CCOc3ccccc3)C2)C1` (configuration not stated), the cytotoxicity at 70.5 h rises from -10.6% to -8.26%.

Going from `Cc1occc1C(=O)N1CCC2(CCC(C(=O)NCC3CC3)O2)CC1` (configuration not stated) to `CC(=O)N1CCC(C)(c2cc(C(=O)NCC3CC3)nc(C)n2)CC1`, the cytotoxicity at 70.5 h rises from -12.7% to -1.84%.

Going from `COCCO[C@H]1CCN(C(=O)c2cc(C)on2)[C@H]1Cc1ccccc1` to `CO[C@@H]1CCN(C(=O)c2ccccn2)[C@H]1Cc1ccccc1`, the cytotoxicity at 70.5 h falls from 0.559% to -16.2%.

Compared with `CC[C@H]1NCCC[C@]12CCC(=O)N2Cc1ccncc1`, `Cc1nc(CN2CCC3(CCCN(Cc4ccncc4)C3)C2=O)cs1` (configuration not stated) is lower in cytotoxicity at 70.5 h: -0.708% for the first, -11.1% for the second.

First: O=C(c1ccnnc1)N1CCC2(CC1)CC(N1CCOCC1)C2
Second: O=C(N1CCCC1)N1CCC2(CCCN(CCOc3ccccc3)C2)C1 (configuration not stated)
The cytotoxicity at 70.5 h of the first is higher: 33.7% for the first, 26.5% for the second.

Going from `O=C(C1CC1)N1CC[C@H](O)[C@@H]1Cc1ccccc1` to `NC[C@H]1[C@H]2CN(Cc3ccccc3)C[C@@H]12`, the cytotoxicity at 70.5 h rises from -3.79% to 0.818%.

Going from `c1ccc(N2CCCC3(CCN(Cc4nccs4)C3)C2)nc1` (configuration not stated) to `CC(C)c1ccc(CN2CCC3(CCCN(c4nncs4)C3)C2)cc1` (configuration not stated), the cytotoxicity at 70.5 h falls from 6.32% to -4.12%.

Going from `CN(C)C(=O)CC1CC2(CCN(C(=O)N(C)C)CC2)Oc2ccccc21` (configuration not stated) to `O=C1COC2(CCN(C(=O)c3ccco3)CC2)CN1Cc1ccccn1`, the cytotoxicity at 70.5 h rises from -11.4% to -1.65%.

Going from `CNC(=O)[C@@]12CCC3(CCN(C(C)=O)CC3)[C@@H]1CN(S(C)(=O)=O)C2` to `CNC(=O)c1cc2c(nc1NCC(C)C)CCN(S(=O)(=O)C1CC1)CC2`, the cytotoxicity at 70.5 h falls from -4.49% to -6.3%.

First: COCC1c2nnn(CC3CC3)c2CCN1C(=O)c1cccc(F)c1 (configuration not stated)
Second: Cn1cc(N2C(=O)CC[C@@H]3[C@H]2CCN3Cc2cccc(C#N)c2)cn1
The cytotoxicity at 70.5 h of the first is higher: -6.77% for the first, -13.2% for the second.

Going from `CCOCC1CN(S(C)(=O)=O)Cc2ncn(CC3CC3)c21` (configuration not stated) to `CN(C)CCOCC1CN(CC2CCOCC2)Cc2nnn(C)c21` (configuration not stated), the cytotoxicity at 70.5 h falls from 3.76% to -6.51%.

Going from `CCS(=O)(=O)N1CC[C@]2(C[C@@H](OCC3CC3)CO2)C1` to `CC(C)NC(=O)CC1COC2(CCN(Cc3cccs3)CC2)C1` (configuration not stated), the cytotoxicity at 70.5 h falls from -8.16% to -20.6%.

Compared with `O=C(NCc1cnc2n1CCN(CC1CC1)CC2)C1CCC1`, `CC1CCN(C(=O)[C@H]2CC[C@@H]3[C@@H](CCN3Cc3nccs3)O2)CC1` is higher in cytotoxicity at 70.5 h: -8.49% for the first, 25.3% for the second.

Going from `CCc1ccccc1NC(=O)N1CCn2cnc(COC)c2C1` to `CCCNC(=O)C1(Cc2cc(-c3ccccc3)no2)CCN(C(C)=O)C1` (configuration not stated), the cytotoxicity at 70.5 h rises from -7.61% to 3.68%.

First: CCc1noc(CCC(=O)N2CCC(c3ccn[nH]3)C2)n1 (configuration not stated)
Second: CC(C)(C)c1cc(C(=O)N2CCOC(c3cnccn3)C2)[nH]n1 (configuration not stated)
The cytotoxicity at 70.5 h of the first is higher: 17.8% for the first, 0.63% for the second.

Compared with `Cc1nc(CN2CCCC(c3nccs3)C2)cs1` (configuration not stated), `Cc1nc(CN2CC[C@H]3[C@@H]2CCC(=O)N3c2cnn(C)c2)cs1` is higher in cytotoxicity at 70.5 h: -0.693% for the first, 13.5% for the second.

First: CNc1cccc(CC2COCCN(C(=O)c3cnn(C)c3)C2)n1 (configuration not stated)
Second: Cc1cccc(CN2CC[C@H]3[C@H]2CCN3Cc2cnn(C)c2)n1
The cytotoxicity at 70.5 h of the first is lower: -0.46% for the first, 30.5% for the second.

Compared with `CC(=O)N1CCC1c1cc(NC2CCOCC2)nc(C)n1` (configuration not stated), `CNC(=O)C1CN(C)CCN1c1nc(C)cc(C)n1` (configuration not stated) is higher in cytotoxicity at 70.5 h: -0.759% for the first, 14.1% for the second.

Compared with `c1cncc(CN2CCC(c3ccnc4nccn34)C2)c1` (configuration not stated), `c1cnc(N2Cc3nccn3CC(COc3cccnc3)C2)nc1` (configuration not stated) is lower in cytotoxicity at 70.5 h: -1.1% for the first, -8.37% for the second.

Going from `CC(=O)NC1CCc2ccc(S(=O)(=O)NCc3ncccc3C)cc21` (configuration not stated) to `CS(=O)(=O)N1CC(c2ccnc(Nc3ccccn3)n2)C1`, the cytotoxicity at 70.5 h falls from 39.1% to -3.95%.

Going from `Cc1nc(Nc2nccs2)cc(C2CN(C(C)C)C2)n1` to `CNC(=O)[C@@H]1C[C@H]2CN(Cc3nccs3)C[C@H]2N1C`, the cytotoxicity at 70.5 h rises from -5.94% to 6.13%.

Compared with `Cc1nnc(N2CCOC(C)(C(=O)N(C)C)C2)c2ccccc12` (configuration not stated), `CC(C)CN1CCC2(CC1)C(=O)Nc1ccc(C(=O)N(C)C)cc12` is lower in cytotoxicity at 70.5 h: -8.96% for the first, -10.1% for the second.

First: O=C(O)[C@H]1OCC(=O)N(Cc2cccc(Cl)c2)[C@@H]1c1ccccc1
Second: NC(=O)C1CN(C(=O)c2ccc(F)cc2)CCN1CCc1ccccc1 (configuration not stated)
The cytotoxicity at 70.5 h of the first is lower: -6.12% for the first, -4.6% for the second.

Going from `Cc1cc(C)n(-c2nc(C(=O)NCCN3CCC(C)CC3)cs2)n1` to `COCCN1CCc2cc(C(=O)N(C)C)c(NC(C)C)nc2CC1`, the cytotoxicity at 70.5 h falls from -5.84% to -8.98%.

First: CCc1nc(C)cc(N2CCN(C(=O)[C@@H]3C[C@@H]4C=C[C@H]3C4)CC2)n1
Second: CCN1CCn2c(C)cnc2C12CCN(C(=O)c1cscn1)CC2
The cytotoxicity at 70.5 h of the first is lower: -7.28% for the first, 4.22% for the second.

Compared with `Cn1ccnc1-c1nc(NC2CCCC2)ncc1-c1cccc(F)c1`, `CN(C)c1nccc(C2CCCCN2Cc2cnn3cccnc23)n1` (configuration not stated) is lower in cytotoxicity at 70.5 h: 0.205% for the first, -7.45% for the second.

Compared with `O=c1[nH]cc(N2CCOCC2)c(=O)[nH]1`, `Cc1nc(N2CCOCC2)sc1C(=O)NCC(C)(C)N1CCCCC1` is lower in cytotoxicity at 70.5 h: -0.0513% for the first, -2% for the second.

Compared with `CC(C)(C)C(=O)N1CCCc2c(cnn2-c2ccccc2)C1`, `CN1C(=O)C(c2ccccc2)CC12CCN(CCO)CC2` (configuration not stated) is lower in cytotoxicity at 70.5 h: 1.62% for the first, -14.6% for the second.

Compared with `O=C1CC2(CCCNC2)C(=O)N1Cc1ccccc1` (configuration not stated), `C[C@@H]1C(=O)NC[C@H]2CN(CCc3ccccc3)C[C@H]21` is lower in cytotoxicity at 70.5 h: 18.9% for the first, -0.303% for the second.

Going from `COc1cccc(CN2CCCCC2c2n[nH]cc2-c2cc(C)no2)c1` (configuration not stated) to `COCCO[C@H]1CCN(Cc2cccs2)[C@H]1Cc1cccnc1`, the cytotoxicity at 70.5 h falls from -3.89% to -8.35%.

Compared with `CCn1cc(-c2cncn2CCc2ccc3c(c2)OCCO3)cn1`, `COCC1Cn2nnc(-c3cnn(C)c3)c2CN1Cc1ccsc1` (configuration not stated) is lower in cytotoxicity at 70.5 h: 19.5% for the first, -9.05% for the second.

Compared with `CN1CCc2c(C#N)c(NCCCN3CCOCC3)n3cnnc3c2C1`, `CN(C)CCN1CCO[C@H]2CN(Cc3cnn(C)c3)C[C@H]21` is higher in cytotoxicity at 70.5 h: -14.3% for the first, -7.82% for the second.

Compared with `O=C(N[C@H]1CN(Cc2ccsc2)[C@@H]2CCCO[C@H]12)C1CC1`, `Cc1noc(C)c1CN1C[C@H](OCC2CC2)[C@H]2OCCC[C@H]21` is higher in cytotoxicity at 70.5 h: -11.3% for the first, -9.93% for the second.

First: CN(C)C[C@@H]1C[C@@H]2CN(C(=O)c3ccoc3)CC[C@@H]2N1CC1CC1
Second: CN1[C@H](CN2CCCC2)C[C@@H]2CN(C(=O)Cc3cccs3)CC[C@@H]21
The cytotoxicity at 70.5 h of the first is lower: 24% for the first, 27.9% for the second.

Compared with `O=C1C[C@H]2[C@H](CCN2Cc2ccccn2)N1CC1CC1`, `O=C1CC[C@H]2[C@H](CCN2Cc2ccccn2)N1CC1CCOCC1` is higher in cytotoxicity at 70.5 h: -15.8% for the first, -6.68% for the second.

Compared with `Cc1cccc(CN2CCc3nnc(CN4CCCC4=O)n3CC2)n1`, `CC(=O)N1CCN(Cc2ccccn2)CC2(CC(=O)N(C)C2)C1` (configuration not stated) is higher in cytotoxicity at 70.5 h: -16.9% for the first, 0.971% for the second.

First: COc1ccc(CN2CCC3(CC2)CCN(CC(C)C)C3=O)cc1
Second: CNC(=O)c1ccc2c(c1)C1(CCN(CC(C)C)CC1)C(=O)N2
The cytotoxicity at 70.5 h of the first is lower: -10.6% for the first, -10.5% for the second.

First: c1cnc(N2CCC3(CC2)CN(CC2CC2)c2ccccc23)nc1
Second: Fc1cccnc1OC[C@@]12CCO[C@@H]1CCN(CC1CCOCC1)C2
The cytotoxicity at 70.5 h of the first is higher: 12.1% for the first, -9.65% for the second.

Compared with `Cc1noc(C)c1CN1CCCC2(CCN(C(=O)NC3CC3)C2)C1` (configuration not stated), `CN1CC2(CCN(Cc3ccoc3)CC2)COc2ccccc2S1(=O)=O` is lower in cytotoxicity at 70.5 h: 1.02% for the first, -12.1% for the second.

Going from `C[C@@H]1C(=O)NC[C@H]2CN(Cc3ccsc3)C[C@H]21` to `O=C(CC1CC1)N1C[C@@H]2CCN(c3cnccn3)C[C@@H]2C1`, the cytotoxicity at 70.5 h rises from -2.8% to 4.03%.

With `O=C([C@@H]1CC[C@@H]2[C@@H](CCN2Cc2ccoc2)O1)N1CCCC1` the cytotoxicity at 70.5 h was -11.4%.
